Experimental findings from patent US9340559B2, “Proteasome inhibitor delanzomib for use in the treatment of lupus” (Cephalon, Inc., priority 2011, dated 2016) are described below.

Assay [1] has as its system NZM mice. Description: Renal histopathology blinded scores, NZM mice (Example 3). Format: in vivo, mouse. The method, then: FIG. 52 depicts renal histopathology scores from NZM mice (H&E stained paraffin wax embedded kidney tissues sections from 25 week old mice).
For histological analyses, the left kidney from each animal is removed and fixed in 10% buffered neutral formalin (EMD) for 48 hours on an orbital rocker at 25° C., then washed overnight with running dH2O and stored in 70% ethanol at 4° C. until ready to be processed. Kidney stains used for histological analyses included hematoxylin and eosin (H&E), Periodic Acid Schiff (PAS) and Trichrome stains (Wistar Institute, Philadelphia, Pa.). All 3 stained sections are used by the pathologist for scoring purposes. All histological scoring is performed blinded and by an independent board certified veterinary medical pathologist (Julie Engiles, VMD, DACVP). Multiple stains are used to determine score values. Images in FIG. 39 show worst affected area of section selected blindly by the pathologist.
Kidney IC-GN Scoring Method (Smith, Dong et al. 2007): […]

The test system of assay [2] is NZM mice. The assay is described as follows: Antibody secreting cell Elispot (anti-Smith, anti-dsDNA ASC), spleens of NZM mice (Example 3). Format: in vivo, mouse. The method, then: FIG. 49 depicts the frequency of anti-Smith antibody secreting cells in the spleens of NZM mice. NZM treated mice spleens were processed for splenocytes for ex vivo Elispot assays. Elispot wells were coated with 10 μg/mL of purified smith antigen or ovalbumin protein as a third party background control antigen. Fresh, whole splenocytes were added to each well at 500,000 cells per well in cell culture medium. Cells were incubated overnight at 37° C. Developed wells provided spots that were counted as frequency of ASCs per million splenocytes.
FIG. 50 depicts the frequency of anti-dsDNA antibody secreting cells in the spleens of NZM mice. NZM treated mice spleens were processed for splenocytes for ex vivo Elispot assays. Elispot wells were coated with 10 μg/mL of bovine dsDNA or ovalbumin protein as a third party background control antigen. Fresh, whole splenocytes were added to each well at 500,000 cells per well in cell culture medium. Cells were incubated overnight at 37° C. Developed wells provided spots that were counted as frequency of ASCs per million splenocytes.
B-cell Elispot components are ordered from MabTech (Nacka Strand, Sweden) and nitrocellulose IP filter plates are ordered from Millipore (Billerica, Mass.). Elispot wells are coated with either purified bovine thymus dsDNA (Sigma), purified bovine Smith antigen (GenWay) or boiled filtered purified chicken chromatin from lysed chicken red blood cells (Rockland, Gilbertsville, Pa.) at 10 μg/mL. Spleens are processed using glass homogenization (frosted slides). Dispersed cell contents are washed in sterile HBSS and RBCs lysed using 1×RBC lysis buffer (BioLegend, Cat #420301). Processed splenocytes are added to each well and are not stimulated with lipopolysaccharide (LPS) to avoid skewing of true ex vivo frequencies of antibody-secreting cell types (ASCs). Anti-mouse pan-IgG is used as a positive control for total IgG producing ASCs and is used to normalize results. Frequencies for each antigen are identified in an initial test phase for each model. For chromatin and total IgG only, 30,000 splenocytes are added to each well; for Smith antigen and dsDNA, 500,000 cells are added to each well. Different numbers of splenocytes are added for different antigens due to saturation limits of spot frequencies per well. B-cell Elispots are incubated overnight at 37° C. To develop each assay, secondary antibody is added to each well, incubated, washed and alkaline phosphatase strepavidin (Jackson ImmunoResearch, West Grove, Pa.) is used as the conjugate; substrate used is BCIP-NBT (MabTech, Cincinnati, Ohio). Plates are developed until spots are visible. All Elispot analyses are performed using an Immunospot C.T.L. scanner and Biospot software (Cellular Technology Ltd., Shaker Heights, Ohio). Results are shown as values from which media and cells only wells are subtracted. Some values are negative due to high background.

Assay [3] concerns NZM mice. The assay is described as follows: Spleen CD38/CD138+ plasma cells by flow cytometry, NZM mice (Example 3). On the technique in general: Flow cytometry measures light scatter and fluorescence of single cells or particles in a stream.
For another assay, the system named is IκBα. Description: IκBα accumulation ELISA in kidney 3 hours post dosing, NZM mice (Example 2). Format: in vivo, mouse. The method, then:
Samples are homogenized frozen using a PT 10-35 Polytron homogenizer (VWR, no. 97036-082). […] Spleen proteasome activity is analyzed using 20S fluorogenic assay (Cayman Chemical Company, Cat #10008041, Lot #0414698-1) and modulation of proteasome activity in the kidney is analyzed using the IκBα accumulation ELISA assay (Cell Signaling, Cat #7355, Lot #17).
(ELISA stands for enzyme-linked immunosorbent assay.)

Assay [4] concerns NZM mice. The assay is described as follows: Serum IL-12 by Luminex, NZM mice (Example 3). Type of assay: in vivo, mouse. Here is the method: FIG. 48 depicts serum IL-12 concentration in NZM mice. Mean±SEM values for the concentration of mouse serum IL-12 from treated NZM mice at the end of the study.
For the processing of serum samples for cytokine analysis, frozen plasma at −80° C. is thawed on ice, vortexed, and centrifuged for 10 minutes (10,000×g) to remove debris and aggregates. A total of 25-50 μL of serum is used for Luminex assays following the manufacturer's instructions. Ten different mouse cytokines are measured using the mouse cytokine 20-plex bead kit (Invitrogen, Carlsbad, Calif., no. LMC0006). Briefly, filter plates (Millipore, Billerica, Mass., no. MAIPSWU10), are pre-wet with 200 μL of wash solution (kit component) and 25 μL of beads are added per well. Serum samples are diluted and a total volume of 50 μL is added per well (ie, 25 μL of sample serum plus 25 μL of assay diluent as provided by the manufacturer). Plates with beads are incubated for 2 hours at room temperature (RT) on an orbital shaker in the dark. At the end of the incubation, plate(s) are washed twice in kit buffer, secondary biotinylated antibody is added at a 1:10 dilution (100 μL) in biotin diluent provided with the kit. Plates are incubated at RT for 1 hour in the dark then washed twice in kit buffer. Strepavidin in assay diluent is added at 100 μL per well, then incubated for 30 minutes at RT in the dark. The plates are washed 3 times then 100 μL of kit wash solution is added and agitated for 2-3 minutes at RT in the dark. Plates are run immediately following this incubation period on a Luminex xMAP 200 unit with data acquisition and analysis software (Invitrogen, San Diego, Calif., no. MAP0200). All bead washing is performed using a vacuum manifold unit (Pall, Ann Arbor, Mich. no. 5017). For all cytokine Luminex assays, values below the limit of detection set by the lowest point along the standard or set by the manufacturer are considered out of range and are not estimated, but assumed the lowest point along the standard curve for that particular assay.

The next assay relates to MRL/lpr mice. The assay is described as follows: Serum C3 complement ELISA, MRL/lpr mice. Format: in vivo, mouse. The source says: Mice are tracked on an individual basis.

With `CC(C)C[C@H](NC(=O)[C@@H](NC(=O)c1cccc(-c2ccccc2)n1)[C@@H](C)O)B(O)O` [COMPOUND A, [(1R)-1-[[(2S,3R)-3-hydroxy-2-[6-phenyl-pyridine-2-carbonyl)amino]-1-oxobutyl]amino]-3-methylbutylboronic acid], the “combined average renal histopathology blinded score decrease vs vehicle” value in the assay on NZM mice [1] (Group 1 (regimen: Table 42)) is recorded as 53%; with NZM mice [1] (Group 2 (regimen: Table 42)), 43.6%; with NZM mice [1] (Group 3 (regimen: Table 42)), 18.9%; in the assay on NZM mice [1] (Group 4 (regimen: Table 42)) it was 48.7%; in the assay with NZM mice [1] (Group 5 (regimen: Table 42)) it was 40.5%. In addition, the “anti-sdDNA ASC decrease vs vehicle” value in the assay on NZM mice [2] (Group 1 (regimen: Table 42)) was 97.9%; in the assay with NZM mice [2] (Group 2 (regimen: Table 42)) it was 96.4%; in the assay with NZM mice [2] (Group 4 (regimen: Table 42)) it was 100.7%; in the assay with NZM mice [2] (Group 5 (regimen: Table 42)), 95.9%. Further, the “anti-smith ASC decrease vs vehicle” value worked out at 98.7% with NZM mice [2] (Group 1 (regimen: Table 42)), 96.6% in the assay on NZM mice [2] (Group 2 (regimen: Table 42)), 98.6% in the assay with NZM mice [2] (Group 4 (regimen: Table 42)) and 97.6% with NZM mice [2] (Group 5 (regimen: Table 42)). The “spleen CD138/CD38 double positive plasma B cells decrease vs vehicle” value in the assay with NZM mice [3] (Group 1 (regimen: Table 42)) was 56.6%; in the assay on NZM mice [3] (Group 2 (regimen: Table 42)), 38.1%; with NZM mice [3] (Group 4 (regimen: Table 42)), 49.8%; in the assay on NZM mice [3] (Group 5 (regimen: Table 42)) it was 24.3%; in the assay with NZM mice [3] (Group 6 (regimen: Table 42)) it was 47.8%. The “PD IκBα accumulation, percent change vs vehicle” value in the assay with IκBα (G1 3 mg/kg ip, 1× wk) was “+33%”; in the assay on IκBα (G2 3 mg/kg ip, 2× wk), “+60%”. In addition, in the assay on IκBα (G2 3 mg/kg 2× wk ip), the “p, kidney IκBα accumulation 3 hours post dosing vs G9 Vehicle 1× wk ip” value is “p < 0.05”. Further, the “kidney IκBα increase above vehicle” value in the assay with IκBα (twice weekly administration) is reported as around 40%. Besides, the “serum IL-12 decrease vs vehicle” value stood at 92.8% with NZM mice [4] (Group 1 (regimen: Table 42)), 76.6% with NZM mice [4] (Group 2 (regimen: Table 42)), 75.7% in the assay with NZM mice [4] (Group 4 (regimen: Table 42)) and 70.8% with NZM mice [4] (Group 5 (regimen: Table 42)). Besides, in the assay with MRL/lpr mice (treated orally, day 99), the “serum C3 concentration increase over vehicle” value was found to be 128%.
Consider `CC(C)C[C@H](NC(=O)[C@H](Cc1ccccc1)NC(=O)c1cnccn1)B(O)O` [bortezomib, reference compound], for which the “combined average renal histopathology blinded score decrease vs vehicle” value in the assay on NZM mice [1] (Group 7, ip) is 19.4%; with NZM mice [1] (Group 8, sc), 43.6%. The “anti-dsDNA ASC decrease vs vehicle” value in the assay on NZM mice [2] (Group 7, ip) turned out to be 64.7%; with NZM mice [2] (Group 8, sc) it was 88.9%. Moreover, the “anti-smith ASC decrease vs vehicle” value in the assay with NZM mice [2] (Group 7, ip) was determined as 46.3%; in the assay on NZM mice [2] (Group 8, sc) it was 82.4%. Moreover, the “spleen CD138/CD38 double positive plasma B cells decrease vs vehicle” value in the assay with NZM mice [3] (Group 7, ip) was determined as 35.4%; in the assay on NZM mice [3] (Group 8, sc), 57.8%. Besides, the “PD IκBα accumulation, percent change vs vehicle” value in the assay on IκBα (G3 0.3 mg/kg ip, 1× wk) was “+61%”; in the assay with IκBα (G4 0.3 mg/kg ip, 2× wk) it was “+29%”. Moreover, the “serum IL-12 decrease vs vehicle” value was determined as 65.8% with NZM mice [4] (Group 7, ip) and 75.6% in the assay on NZM mice [4] (Group 8, sc). Further, the “serum C3 relative to vehicle” value in the assay with MRL/lpr mice (bortezomib treatment groups) is given as “did not exhibit a significant increase in serum C3”.
